Tested on: Patients with vision loss
Assay: Clinical evaluation of vision improvement (OSDI vision assessment)
Format: in vivo
Conditions: for course of OSDI vision improvement over the follow-up: follow-up at two weeks, one month, six weeks and 3 months; for vision, change from baseline as assessed by the OSDI vision assessment: twice a week on the lower eyelid of both eyes, FIGS. 2A-2C
Experimental: Patients with vision loss were treated with control (N=26) or a drug formulation comprising 0.1% selenium disulfide (n=9), 0.5% selenium disulfide (n=26), or 1% selenium disulfide (n=34). Treatment consisted of twice a week application of the drug product on the lower eyelid of both eyes. Patients were followed up and their vision was assessed with an Ocular Surface Disease Index (OSDI) vision assessment after two weeks, one month, six weeks, and 3 months.

In the case of selenium disulfide, the “course of OSDI vision improvement over the follow-up” value (0.5% selenium disulfide) is reported as “continued improvement from 2 weeks to three months”, the “course of OSDI vision improvement over the follow-up” value (1% selenium disulfide) is reported as “continued improvement from 2 weeks to three months” and the “vision, change from baseline as assessed by the OSDI vision assessment” value (drug formulation comprising 0.5% selenium disulfide) is reported as “improvement in vision”. The “vision, change from baseline as assessed by the OSDI vision assessment” value (drug formulation comprising 1% selenium disulfide) was “improvement in vision”.
